Assays:
[1] = Pharmacokinetics of oral EVL in rats without and with coadministered curcumin; assay type: in vivo; settings: for AUC(0-t): male, Sprague-Dawley, rat, whole blood, po, 0.5 mg/kg, AUC0-540, area under the blood concentration-time curve from 0 to 540 min
[2] = cited from earlier work
CYP3A4 = CYP3A4 (Homo sapiens, UniProt P08684); experiment: Vivid CYP450 screening kit, recombinant CYP 3A4 activity; assay type: biochemical; settings: recombinant CYP3A4 BACULOSOMES, probe Vivid BOMR
P-gp = P-gp (Homo sapiens, UniProt P08183); experiment: P-gp mediated transport of rhodamine 123; assay type: cell-based; settings: LS 180 cells, 4-h incubation
[3] = EVL 0.5 mg/kg + curcumin 50 mg/kg
[4] = EVL 0.5 mg/kg + curcumin 100 mg/kg

Sequence of P-gp (P08183 whole entry): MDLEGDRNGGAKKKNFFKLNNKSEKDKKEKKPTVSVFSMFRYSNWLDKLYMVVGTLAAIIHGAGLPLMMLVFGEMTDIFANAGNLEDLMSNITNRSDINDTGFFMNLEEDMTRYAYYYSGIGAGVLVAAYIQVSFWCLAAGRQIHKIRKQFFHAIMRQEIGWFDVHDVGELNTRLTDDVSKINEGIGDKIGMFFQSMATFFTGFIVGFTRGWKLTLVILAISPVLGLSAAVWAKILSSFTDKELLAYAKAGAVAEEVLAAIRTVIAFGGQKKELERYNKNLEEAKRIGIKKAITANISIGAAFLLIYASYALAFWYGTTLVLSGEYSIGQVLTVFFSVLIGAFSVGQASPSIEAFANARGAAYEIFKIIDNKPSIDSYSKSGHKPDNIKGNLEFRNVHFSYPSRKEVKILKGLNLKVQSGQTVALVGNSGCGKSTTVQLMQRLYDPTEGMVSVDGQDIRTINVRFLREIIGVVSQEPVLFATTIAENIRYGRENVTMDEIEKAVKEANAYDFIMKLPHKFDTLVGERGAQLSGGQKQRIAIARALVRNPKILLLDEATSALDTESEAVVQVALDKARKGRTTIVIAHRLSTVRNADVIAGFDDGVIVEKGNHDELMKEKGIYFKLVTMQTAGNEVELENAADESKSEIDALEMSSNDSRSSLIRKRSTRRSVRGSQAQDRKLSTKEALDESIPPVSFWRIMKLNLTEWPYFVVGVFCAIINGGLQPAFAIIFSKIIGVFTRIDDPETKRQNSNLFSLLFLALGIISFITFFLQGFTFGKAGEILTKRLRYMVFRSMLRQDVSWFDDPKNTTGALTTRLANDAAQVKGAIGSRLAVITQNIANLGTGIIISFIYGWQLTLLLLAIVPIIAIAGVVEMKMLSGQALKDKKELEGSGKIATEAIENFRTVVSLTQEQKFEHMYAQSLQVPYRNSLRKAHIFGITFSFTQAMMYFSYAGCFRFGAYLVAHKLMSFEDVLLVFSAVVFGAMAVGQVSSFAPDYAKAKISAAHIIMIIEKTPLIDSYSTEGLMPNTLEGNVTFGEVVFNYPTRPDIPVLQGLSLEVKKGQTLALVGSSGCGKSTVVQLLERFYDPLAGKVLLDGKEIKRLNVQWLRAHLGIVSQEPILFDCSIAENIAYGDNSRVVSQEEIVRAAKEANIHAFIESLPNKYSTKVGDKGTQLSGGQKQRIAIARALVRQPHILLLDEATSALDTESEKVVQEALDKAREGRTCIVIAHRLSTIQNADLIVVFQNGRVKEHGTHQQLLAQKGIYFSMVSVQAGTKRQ
Sequence of CYP3A4 (P08684 whole entry): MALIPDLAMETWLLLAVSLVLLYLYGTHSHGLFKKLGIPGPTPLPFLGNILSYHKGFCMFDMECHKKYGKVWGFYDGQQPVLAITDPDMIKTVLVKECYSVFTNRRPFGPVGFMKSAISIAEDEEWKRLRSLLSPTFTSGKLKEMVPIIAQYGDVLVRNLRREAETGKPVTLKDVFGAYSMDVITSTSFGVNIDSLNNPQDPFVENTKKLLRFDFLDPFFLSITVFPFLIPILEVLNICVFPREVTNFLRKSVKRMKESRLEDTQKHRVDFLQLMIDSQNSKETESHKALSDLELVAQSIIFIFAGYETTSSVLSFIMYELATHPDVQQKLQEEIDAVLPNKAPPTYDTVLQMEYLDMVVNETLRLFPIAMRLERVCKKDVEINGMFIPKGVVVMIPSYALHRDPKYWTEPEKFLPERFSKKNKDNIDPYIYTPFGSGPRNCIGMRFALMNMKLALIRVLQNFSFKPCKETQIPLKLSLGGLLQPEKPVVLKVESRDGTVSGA

## CO[C@H]1C[C@@H]2CC[C@@H](C)[C@@](O)(O2)C(=O)C(=O)N2CCCC[C@H]2C(=O)O[C@H]([C@H](C)C[C@@H]2CC[C@@H](OCCO)[C@H](OC)C2)CC(=O)[C@H](C)/C=C(\C)[C@@H](O)[C@@H](OC)C(=O)[C@H](C)C[C@H](C)/C=C/C=C/C=C/1C [EVL, Everolimus]
[1]; [3]
  Change of AUC0-540 versus EVL alone: −70.6%
  Change of Cmax versus EVL alone: −76.7%
[1]; [4]
  Change of AUC0-540 versus EVL alone: −71.5%
  Change of Cmax versus EVL alone: −76.7%
  Change of MRT versus EVL alone: 35.3%
[1]; oral EVL 0.5 mg/kg + curcumin 50 mg/kg
  AUC(0-t): 8.03 ng·h/mL
[1]; oral EVL 0.5 mg/kg + curcumin 100 mg/kg
  AUC(0-t): 7.77 ng·h/mL
[1]; oral EVL 0.5 mg/kg alone
  AUC(0-t): 27.3 ng·h/mL
[2]
  Half-life: 18 to 35 h
  Oral bioavailability: 15–16%
[2]; oral
  Time to peak concentration: 0.5 to 4.0 h

## O=C(/C=C/c1ccc(O)cc1)CC(=O)/C=C/c1ccc(O)cc1 [bis-demethoxycurcumin]
CYP3A4
  inhibition at 30 min, 0.5 µM: 10%
  inhibition at 30 min, 1 µM: 10%

## COc1cc(/C=C/C(=O)CC(=O)/C=C/c2ccc(O)c(OC)c2)ccc1O [curcumin, Diferuloylmethane]
[1]; curcumin 50 mg/kg oral with EVL 0.5 mg/kg
  Effect on the MRT of EVL by coadministered curcumin: not affected
P-gp; 25 μM
  Decrease of the efflux function of P-gp (rhodamine 123 accumulation): 13.2%
P-gp; 50 μM
  Decrease of the efflux function of P-gp (rhodamine 123 accumulation): 16.7%
P-gp; 100 μM
  Decrease of the efflux function of P-gp (rhodamine 123 accumulation): 172.9%
CYP3A4
  inhibition at 30 min, 5 µM: 93%
  inhibition at 30 min, 10 µM: 90%

## COc1cc(/C=C/C(O)=C/C(=O)/C=C/c2ccc(O)cc2)ccc1O [demethoxycurcumin]
CYP3A4
  inhibition at 30 min, 5 µM: 21%
  inhibition at 30 min, 10 µM: 53%
